Data published in publication PMC6070925, “Genome Mining of Non-Conventional Yeasts: Search and Analysis of MAL Clusters and Proteins” (Genes, 2018).

Tests used:
Experiment in all cases: glucose release, recombinant E. coli extract
Format in all cases: biochemical
Settings in all cases: 100 mM substrate, K-phosphate pH 6.5, 0.1 mM EDTA, 30 °C
[1] = target: T1, MAL62 (Sc MAL62) (Saccharomyces cerevisiae, UniProt P07265)
T1 construct: gene from plasmid pY6 cloned into pURI3-Cter, expressed in E. coli BL21 (DE3), crude cell extract

[2] = target: T2, MAL7 (Ss MAL7) (Scheffersomyces stipitis, UniProt A3LUP5)
T2 construct: gene PCR-cloned from genomic DNA into pURI3-Cter, expressed in E. coli BL21 (DE3), crude cell extract
T2 sequence (A3LUP5 1-572): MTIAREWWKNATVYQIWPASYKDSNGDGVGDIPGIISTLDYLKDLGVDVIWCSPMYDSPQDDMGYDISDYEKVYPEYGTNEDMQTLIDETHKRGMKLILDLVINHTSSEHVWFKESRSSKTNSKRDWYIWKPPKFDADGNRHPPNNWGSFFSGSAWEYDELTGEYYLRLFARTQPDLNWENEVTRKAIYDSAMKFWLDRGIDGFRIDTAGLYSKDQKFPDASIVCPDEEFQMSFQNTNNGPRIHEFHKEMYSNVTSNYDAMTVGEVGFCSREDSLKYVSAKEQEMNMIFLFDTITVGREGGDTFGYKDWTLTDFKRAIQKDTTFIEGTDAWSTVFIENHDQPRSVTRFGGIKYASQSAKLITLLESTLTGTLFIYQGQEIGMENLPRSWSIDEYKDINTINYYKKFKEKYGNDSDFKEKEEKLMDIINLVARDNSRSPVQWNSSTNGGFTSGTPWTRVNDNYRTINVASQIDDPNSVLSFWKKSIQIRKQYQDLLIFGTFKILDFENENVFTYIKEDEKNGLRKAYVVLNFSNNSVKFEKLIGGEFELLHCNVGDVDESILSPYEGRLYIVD

[3] = target: T1, MAL62 (Sc MAL62); remark: listed apart in the source
[4] = target: T3, MAL9 (Ss MAL9) (Scheffersomyces stipitis, UniProt A3GIC0)
T3 construct: gene PCR-cloned from genomic DNA into pURI3-Cter, expressed in E. coli BL21 (DE3), crude cell extract
T3 sequence (A3GIC0 1-573): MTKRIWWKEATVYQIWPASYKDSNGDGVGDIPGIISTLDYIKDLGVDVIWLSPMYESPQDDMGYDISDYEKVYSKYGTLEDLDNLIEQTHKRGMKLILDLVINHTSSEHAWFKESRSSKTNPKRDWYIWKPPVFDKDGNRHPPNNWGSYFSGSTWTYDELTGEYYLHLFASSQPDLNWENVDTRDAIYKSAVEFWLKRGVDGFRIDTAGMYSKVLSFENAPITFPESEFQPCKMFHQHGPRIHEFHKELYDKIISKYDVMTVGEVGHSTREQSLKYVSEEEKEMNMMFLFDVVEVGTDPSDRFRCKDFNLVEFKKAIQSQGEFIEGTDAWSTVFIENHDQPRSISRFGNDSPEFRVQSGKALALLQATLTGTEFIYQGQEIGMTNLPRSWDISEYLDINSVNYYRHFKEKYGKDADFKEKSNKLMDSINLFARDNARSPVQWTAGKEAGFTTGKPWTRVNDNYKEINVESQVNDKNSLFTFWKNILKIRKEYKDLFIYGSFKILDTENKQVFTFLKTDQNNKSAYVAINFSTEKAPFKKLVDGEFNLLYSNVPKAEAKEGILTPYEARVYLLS

[5] = target: T4, MAL8 (Ss MAL8) (Scheffersomyces stipitis, UniProt A3LXA2)
T4 construct: gene PCR-cloned from genomic DNA into pURI3-Cter, expressed in E. coli BL21 (DE3), crude cell extract
T4 sequence (A3LXA2 1-572): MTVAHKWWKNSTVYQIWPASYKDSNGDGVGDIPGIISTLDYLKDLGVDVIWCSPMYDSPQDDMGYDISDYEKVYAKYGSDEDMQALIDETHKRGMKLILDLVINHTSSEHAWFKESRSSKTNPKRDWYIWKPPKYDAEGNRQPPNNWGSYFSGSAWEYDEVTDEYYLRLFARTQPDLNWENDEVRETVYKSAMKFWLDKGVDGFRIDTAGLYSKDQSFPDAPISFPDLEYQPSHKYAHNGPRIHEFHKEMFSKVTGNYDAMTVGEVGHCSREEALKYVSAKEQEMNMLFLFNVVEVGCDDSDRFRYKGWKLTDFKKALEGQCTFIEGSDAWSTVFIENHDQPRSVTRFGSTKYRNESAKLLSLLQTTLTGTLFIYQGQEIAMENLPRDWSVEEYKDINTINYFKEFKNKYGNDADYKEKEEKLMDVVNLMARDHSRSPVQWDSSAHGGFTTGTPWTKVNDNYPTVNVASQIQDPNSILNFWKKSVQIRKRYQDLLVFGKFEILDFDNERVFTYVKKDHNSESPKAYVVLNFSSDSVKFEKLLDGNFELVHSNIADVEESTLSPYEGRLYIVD

T1 sequence (P07265 whole entry): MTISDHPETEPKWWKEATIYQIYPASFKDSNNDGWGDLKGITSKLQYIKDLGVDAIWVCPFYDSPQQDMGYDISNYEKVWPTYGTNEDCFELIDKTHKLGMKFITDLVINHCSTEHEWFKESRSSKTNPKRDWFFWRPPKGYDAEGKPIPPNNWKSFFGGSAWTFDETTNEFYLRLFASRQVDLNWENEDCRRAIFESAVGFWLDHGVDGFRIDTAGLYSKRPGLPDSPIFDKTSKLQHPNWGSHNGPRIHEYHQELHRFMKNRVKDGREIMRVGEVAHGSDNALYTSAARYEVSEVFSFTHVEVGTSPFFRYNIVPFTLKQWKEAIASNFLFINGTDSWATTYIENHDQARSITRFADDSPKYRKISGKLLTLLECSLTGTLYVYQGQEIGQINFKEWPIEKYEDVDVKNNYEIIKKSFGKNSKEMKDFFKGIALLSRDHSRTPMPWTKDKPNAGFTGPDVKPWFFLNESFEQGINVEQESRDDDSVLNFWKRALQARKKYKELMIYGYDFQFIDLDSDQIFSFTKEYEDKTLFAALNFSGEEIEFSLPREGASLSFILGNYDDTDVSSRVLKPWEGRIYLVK

OC[C@H]1O[C@@](CO)(O[C@H]2O[C@H](CO)[C@@H](O)[C@H](O)[C@H]2O)[C@@H](O)[C@@H]1O [sucrose]
specific activity [1]: behaved as a typical maltase using only maltose-like substrates

OC[C@H]1O[C@H](O[C@H]2[C@H](O)[C@@H](O)C(O)O[C@@H]2CO)[C@H](O)[C@@H](O)[C@@H]1O (some centres unmarked) [maltose]
specific activity relative to sucrose [2]: all these enzymes hydrolyzed not only maltose-like substrates (maltose, sucrose)
specific activity relative to sucrose [3]: behaved as a typical maltase using only maltose-like substrates
specific activity relative to sucrose [4]: all these enzymes hydrolyzed not only maltose-like substrates (maltose, sucrose)
specific activity relative to sucrose [5]: all these enzymes hydrolyzed not only maltose-like substrates (maltose, sucrose)
